Laboratory results from patent publication US8501784B2, “2-pyridone derivatives as neutrophil elastase inhibitors and their use” (Astrazeneca AB, priority 2003, dated 2013).
pIC50: −log10 of the molar value.

Molecular target: T1, Human Neutrophil Elastase (Homo sapiens, UniProt P08246)
T1 construct: Human Neutrophil Elastase (FINE) purified from serum (Calbiochem art. 324681); purchased Calbiochem 324681; host or cells: natural enzyme, purified from serum
T1 sequence (P08246 30-267): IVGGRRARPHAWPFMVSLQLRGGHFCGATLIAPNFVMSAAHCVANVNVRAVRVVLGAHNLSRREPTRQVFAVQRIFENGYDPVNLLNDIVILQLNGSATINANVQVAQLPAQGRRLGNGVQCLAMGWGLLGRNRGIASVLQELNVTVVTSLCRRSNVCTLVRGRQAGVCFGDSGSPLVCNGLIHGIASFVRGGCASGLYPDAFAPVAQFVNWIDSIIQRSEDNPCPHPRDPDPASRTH
Assay: Human Neutrophil Elastase Quenched-FRET Assay
Format: biochemical
Conditions: HNE purified from serum; substrate MeOSuc-AAPV-AMC; 15 min preincubation, 30 min incubation at room temperature; read-out: Inhibition of Human Neutrophil Elastase IC50
Description: Human Neutrophil Elastase Quenched-FRET Assay
HNE was stored in 50 mM NaOAc, 200 mM NaCl, pH 5.5 with added 30% glycerol at −20° C. […] The substrate was stored in DMSO at −20° C. […] The assay buffer constitution was: 100 mM Tris (pH 7.5) and 500 mM NaCl. The enzyme and the compounds were incubated at room temperature for 15 minutes. Then 30 μl substrate in assay buffer was added. The assay was stopped after 30 minutes incubation at room temperature by adding 60 μl stop solution (140 mM acetic acid, 200 mM sodium monochloroacetate, 60 mM sodium acetate, pH 4.3).

pIC50	Structure (SMILES)
8.52	Cc1noc(C)c1-c1cc(C(=O)NCc2ccc(S(=O)(=O)C(C)C)cc2)c(=O)n(-c2cccc(C(F)(F)F)c2)c1C [Example 32, 5-(3,5-Dimethylisoxazol-4-yl)-N-[4-(isopropylsulfonyl)benzyl]-6-methyl-2-oxo-1-[3-(trifluoromethyl)phenyl]-1,2-dihydropyridine-3-carboxamide]
7.32	COc1ncc(-c2cc(C(=O)NCc3ccc(S(C)(=O)=O)cc3)c(=O)n(-c3cccc(C(F)(F)F)c3)c2C)cn1 [Example 5, 5-(2-Methoxypyrimidin-5-yl)-6-methyl-N-[4-(methylsulfonyl)benzyl]-2-oxo-1-[3-(trifluoromethyl)phenyl]-1,2-dihydropyridine-3-carboxamide]
7.34	Cc1c(-c2ccoc2)cc(C(=O)NCc2ccc(S(C)(=O)=O)cc2)c(=O)n1-c1cccc(C(F)(F)F)c1 [Example 2, 5-Furan-3-yl-6-methyl-2-oxo-1-(3-trifluoromethyl-phenyl)-1,2-dihydro-pyridine-3-carboxylic acid 4-methanesulfonyl-benzylamide]
7.33	Cc1c(-c2ccccc2)cc(C(=O)NCc2ccc(S(C)(=O)=O)cc2)c(=O)n1-c1cccc(C(F)(F)F)c1 [Example 1, 6-Methyl-N-[4-(methylsulfonyl)benzyl]-2-oxo-5-phenyl-1-[3-(trifluoromethyl)phenyl]-1,2-dihydropyridine-3-carboxamide]
8.15	Cc1nnc(-c2cc(C(=O)NCc3ccc(S(=O)(=O)C4CC4)cc3)c(=O)n(-c3cccc(C(F)(F)F)c3)c2C)o1 [Example 46, N-[4-(Cyclopropylsulfonyl)benzyl]-6-methyl-5-(5-methyl-1,3,4-oxadiazol-2-yl)-2-oxo-1-[3-(trifluoromethyl)phenyl]-1,2-dihydropyridine-3-carboxamide]
7.92	Cc1cc(CNC(=O)c2cc(-c3ccnn3C)c(C)n(-c3cccc(C(F)(F)F)c3)c2=O)on1 [Example 91, 6-Methyl-5-(2-methyl-2H-pyrazol-3-yl)-2-oxo-1-(3-trifluoromethyl-phenyl)-1,2-dihydro-pyridine-3-carboxylic acid (3-methyl-isoxazol-5-ylmethyl)-amide]
